# Data published in PMC10167348, “Structural mechanisms of TRPM7 activation and inhibition” (Nature Communications, 2023).
# Values joined by “and” are separate entries in the source; they are usually repeats but may differ in a detail not shown here. Equal entries are not always repeated.
# Tests used:
# Type in all cases: cell-based
# wild-type TRPM7 = target: T1, wild-type TRPM7 (Mus musculus, UniProt Q923J1); assay: Whole-cell patch-clamp recordings in HEK 293T cells; conditions: amplitude at +80 mV
# T1 construct: expressed in transfected cells; host or cells: HEK 293T
# Procedure: Patch-clamp experiments were performed as reported previously, with a few modifications[69],[70]. HEK 293T cells grown in 35-mm dishes to ~60% confluence were transiently transfected with Trpm7 cDNAs in the pIRES2-EGFP vector (2 µg/dish). Patch-clamp experiments were conducted 18–22 h after transfection with cells displaying EGFP fluorescence. Whole-cell currents were recorded using an EPC10 patch-clamp amplifier and PatchMaster software (Version V2x69, Harvard Bioscience). Voltages were corrected for a liquid junction potential of 10 mV. Currents were elicited by voltage ramps from –100 mV to +100 mV over 50 ms acquired at 0.5 Hz. The inward and outward current amplitudes were measured at –80 mV and +80 mV and were normalized to the cell size as pA/pF. The capacitance was measured using the automated capacitance cancellation function of EPC10. The standard extracellular solution contained 140 mM NaCl, 2.8 mM KCl, 1 mM CaCl2, 2 mM MgCl2, 10 mM HEPES-NaOH, and 11 mM glucose (all from Sigma-Aldrich). Solutions were adjusted to pH 7.2 using an FE20 pH meter (Mettler Toledo) and to 290 mOsm using a Vapro 5520 osmometer (Wescor Inc). […] For the experiment with naltriben, the intracellular solution contained 120 mM Cs-glutamate, 8 mM NaCl, 10 mM Cs-EGTA, 1.5 mM MgCl2, and 10 mM HEPES-CsOH. The intracellular solution was also adjusted to pH 7.2 and 290 mOsm. Data are presented as the mean ± SEM Unless indicated otherwise, data were compared by unpaired t-test (GraphPad Prism 8.4.0). For multiple comparisons, ordinary one-way ANOVA (GraphPad Prism 8.4.0) was used. Significance was accepted at P ≤ 0.05.
# TRPM7 WT = target: T2, TRPM7 WT (Mus musculus, UniProt Q923J1); assay: Aequorin-based Ca2+ influx assay, activation by naltriben; conditions: for TRPM7 activation, fold: replicate values
# T2 construct: expressed in transfected cells; host or cells: HEK 293T
# Procedure: (§1) Measurements of [Ca^2+]i were performed as reported previously with several modifications[2],[52],[54]. HEK 293T cells (mycoplasma test negative, ATCC #CRL3216) were maintained at 37 °C and 5% CO2 in DMEM supplemented with 10% fetal calf serum, 100 µg/ml streptomycin and 100 U/ml penicillin (all from Thermo Fisher Scientific). Cells cultured in six-well plates (~60% confluence) were transfected with 2 µg/dish Trpm7 plasmid DNA and 0.1 µg/dish pG5A plasmid DNA encoding eGFP fused to Aequorea victoria aequorin, using Lipofectamine 2000 (Thermo Fisher Scientific). Twenty-four hours after transfection, the cells were washed with Mg^2+-free HEPES-buffered saline (Mg^2+-free HBS) containing 140 mM NaCl, 6 mM KCl, 0.5 mM CaCl2, 10 mM HEPES (pH 7.4) and 5 mM glucose, and mechanically resuspended in the Mg^2+-free HBS. For reconstitution of aequorin, cell suspensions were incubated with 5 µM coelenterazine (Biaffin GmbH) in the Mg^2+-free HBS for 30 min at room temperature. Cells were washed twice by centrifugation at 600 rpm for 5 min (Heraeus Pico 17 microcentrifuge, Thermo Fisher Scientific), resuspended in the Mg^2+-free HBS and aliquoted into 96-well plates (1 × 10^5 cells per well). Luminescence was detected at room temperature using a FLUOstar OPTIMA microplate reader (BMG LABTECH GmbH). To monitor the NS8593- and VER155008-induced inhibition of TRPM7-mediated Ca^2+ influx, the extracellular concentration of Ca^2+ was increased to 5 mM by injecting the CaCl2-containing Mg^2+-free HBS in the absence or presence of the inhibitors. […] To study activation by naltriben, TRPM7-transfected cells were exposed to Mg^2+-free HBS containing different concentrations of the agonist. The experiments were terminated by lysing cells with 0.1% (v/v) Triton X-100 in the Mg^2+-free HBS to record the total bioluminescence. The bioluminescence rates (counts/s) were analyzed at 1-s intervals and calibrated as [Ca^2+]i values using the following equation:1 p[Ca^2+]i=0.332588(−log(k))+5.5593 where k represents the rate of aequorin consumption, i.e., counts/s divided by the total number of counts.
# (§2) To determine the IC50 values for NS8593 and VER155008 (EC50 for naltriben), the data were fitted with the following logistic equation:2 Ec=Emin+Emax+Emin/1+c^h/IC50^h where E(c) is the functional effect at the concentration c of the compound, Emin is the minimal effect, Emax is the maximal effect, IC50 (EC50) is the concentration of the compound that produces the half-maximal effect, and h is the Hill coefficient. Fitting of dose-response curves was performed using GraphPad Prism 8.4.0. Data are presented as the mean ± SEM.
# TRPM7-D670A = target: T3, TRPM7-D670A (Mus musculus, UniProt Q923J1, D670A); assay: as above; conditions: for TRPM7 activation, fold: replicate values
# T3 construct: expressed in transfected cells; host or cells: HEK 293T
# Procedure: as §1, §2
# TRPM7-L671A/N752K = target: T4, TRPM7-L671A/N752K (Mus musculus, UniProt Q923J1, L671A/N752K); assay: as above
# T4 construct: expressed in transfected cells; host or cells: HEK 293T
# Procedure: as §1, §2
# TRPM7-M741A = target: T5, TRPM7-M741A (Mus musculus, UniProt Q923J1, M741A); assay: as above; conditions: for TRPM7 activation, fold: replicate values
# T5 construct: expressed in transfected cells; host or cells: HEK 293T
# Procedure: as §1, §2
# TRPM7-N752K = target: T6, TRPM7-N752K (Mus musculus, UniProt Q923J1, N752K); assay: as above
# T6 construct: expressed in transfected cells; host or cells: HEK 293T
# Procedure: as §1, §2
# TRPM7-S744A = target: T7, TRPM7-S744A (Mus musculus, UniProt Q923J1, S744A); assay: as above
# T7 construct: expressed in transfected cells; host or cells: HEK 293T
# Procedure: as §1, §2
# T2 sequence (Q923J1 whole entry): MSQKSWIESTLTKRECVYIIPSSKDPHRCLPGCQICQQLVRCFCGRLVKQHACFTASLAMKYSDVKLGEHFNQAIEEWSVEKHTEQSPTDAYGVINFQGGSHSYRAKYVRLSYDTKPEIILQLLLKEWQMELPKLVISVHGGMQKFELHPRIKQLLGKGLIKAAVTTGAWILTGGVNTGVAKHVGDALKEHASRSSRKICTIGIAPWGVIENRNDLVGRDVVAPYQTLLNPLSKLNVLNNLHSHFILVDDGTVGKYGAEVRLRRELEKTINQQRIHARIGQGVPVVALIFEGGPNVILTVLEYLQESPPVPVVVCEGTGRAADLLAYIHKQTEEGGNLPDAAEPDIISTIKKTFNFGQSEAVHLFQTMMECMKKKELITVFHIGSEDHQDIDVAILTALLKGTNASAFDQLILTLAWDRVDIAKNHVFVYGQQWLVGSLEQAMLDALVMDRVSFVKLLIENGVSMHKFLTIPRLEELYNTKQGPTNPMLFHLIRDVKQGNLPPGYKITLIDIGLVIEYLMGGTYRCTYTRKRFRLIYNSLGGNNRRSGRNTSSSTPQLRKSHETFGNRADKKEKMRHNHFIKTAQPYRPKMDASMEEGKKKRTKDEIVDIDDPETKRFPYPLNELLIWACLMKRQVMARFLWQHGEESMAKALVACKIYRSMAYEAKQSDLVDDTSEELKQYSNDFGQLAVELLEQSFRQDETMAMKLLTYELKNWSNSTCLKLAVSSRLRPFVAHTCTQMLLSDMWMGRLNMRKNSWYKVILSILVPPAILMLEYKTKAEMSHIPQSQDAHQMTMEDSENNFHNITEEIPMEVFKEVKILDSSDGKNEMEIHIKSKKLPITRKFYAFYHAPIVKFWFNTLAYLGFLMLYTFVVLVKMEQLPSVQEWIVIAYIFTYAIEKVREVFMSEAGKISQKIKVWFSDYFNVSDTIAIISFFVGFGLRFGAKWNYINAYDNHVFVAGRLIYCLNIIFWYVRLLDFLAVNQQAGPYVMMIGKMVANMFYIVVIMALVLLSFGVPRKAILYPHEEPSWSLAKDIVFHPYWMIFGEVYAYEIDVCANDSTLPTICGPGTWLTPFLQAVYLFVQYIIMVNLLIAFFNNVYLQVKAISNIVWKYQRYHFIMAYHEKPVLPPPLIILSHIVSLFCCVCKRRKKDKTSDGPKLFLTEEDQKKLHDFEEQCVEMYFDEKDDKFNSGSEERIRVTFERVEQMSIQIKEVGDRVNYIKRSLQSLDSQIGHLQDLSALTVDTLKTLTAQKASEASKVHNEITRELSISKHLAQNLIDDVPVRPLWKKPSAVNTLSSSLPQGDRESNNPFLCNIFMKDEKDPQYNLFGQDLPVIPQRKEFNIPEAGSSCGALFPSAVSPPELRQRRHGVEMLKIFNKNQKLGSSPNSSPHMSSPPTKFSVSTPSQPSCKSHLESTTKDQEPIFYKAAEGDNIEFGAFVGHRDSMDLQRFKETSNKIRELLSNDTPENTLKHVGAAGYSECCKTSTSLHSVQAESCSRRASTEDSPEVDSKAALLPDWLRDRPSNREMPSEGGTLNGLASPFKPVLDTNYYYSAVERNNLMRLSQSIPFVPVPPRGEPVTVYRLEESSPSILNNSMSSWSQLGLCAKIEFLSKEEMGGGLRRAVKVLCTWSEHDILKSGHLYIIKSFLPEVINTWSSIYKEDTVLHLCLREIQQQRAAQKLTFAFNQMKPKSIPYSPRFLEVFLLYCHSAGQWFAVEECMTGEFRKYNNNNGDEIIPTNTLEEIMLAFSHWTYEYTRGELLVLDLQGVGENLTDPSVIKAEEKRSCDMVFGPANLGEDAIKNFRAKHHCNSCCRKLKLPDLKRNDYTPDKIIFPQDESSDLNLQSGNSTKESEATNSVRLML
# T3 sequence (Q923J1 whole entry D670A): as the sequence (Q923J1 whole entry) above, with D670A counted along it
# T5 sequence (Q923J1 whole entry M741A): as the sequence (Q923J1 whole entry) above, with M741A counted along it
# T1 sequence (Q923J1 whole entry): as the sequence (Q923J1 whole entry) above
# T4 sequence (Q923J1 whole entry L671A/N752K): as the sequence (Q923J1 whole entry) above, with L671A, N752K counted along it
# T7 sequence (Q923J1 whole entry S744A): as the sequence (Q923J1 whole entry) above, with S744A counted along it
# T6 sequence (Q923J1 whole entry N752K): as the sequence (Q923J1 whole entry) above, with N752K counted along it
structure (smiles),measurement,setting,value
c1ccc2c(c1)CCC[C@H]2Nc1nc2ccccc2[nH]1 [NS8593],amplitude of TRPM7-mediated currents in the presence of inhibitor,"wild-type TRPM7; 10 µM inhibitor, 450-s exposure",greatly reduced
"Oc1ccc2c3c1O[C@H]1c4oc5ccccc5c4C[C@@]4(O)[C@@H](C2)N(CC2CC2)CC[C@]314 [Naltriben, naltriben]",EC50,TRPM7 WT,65.8 ± 12.4 µM
same,"TRPM7 activation, fold","TRPM7 WT; WT, [Naltriben] 100 µM",3.40 fold and 2.89 fold and 2.30 fold and 2.40 fold and 3.03 fold and 3.14 fold
same,"TRPM7 activation, fold","TRPM7 WT; WT, [Naltriben] 200 µM",4.23 fold and 3.70 fold and 3.66 fold and 2.99 fold and 3.63 fold and 3.89 fold
same,"TRPM7 activation, fold","TRPM7 WT; WT, [Naltriben] 300 µM",4.35 fold and 3.85 fold and 3.80 fold and 3.47 fold and 3.56 fold and 4.23 fold
same,"TRPM7 activation, fold","TRPM7 WT; WT, [Naltriben] 400 µM",4.51 fold and 3.90 fold and 3.86 fold and 3.52 fold and 3.70 fold and 4.17 fold
same,"TRPM7 activation, fold","TRPM7 WT; WT, [Naltriben] 500 µM",4.41 fold and 4.17 fold and 4.05 fold and 3.42 fold and 4.20 fold and 4.10 fold
same,Hill coefficient,"TRPM7 WT; WT, agonist, mean ± SEM",1.23 ± 0.25
same,EC50,TRPM7-D670A,117 ± 32.4 µM
same,"TRPM7 activation, fold","TRPM7-D670A; D670A, [Naltriben] 10 µM",1.01 fold and 1.02 fold and 1.12 fold
same,"TRPM7 activation, fold","TRPM7-D670A; D670A, [Naltriben] 20 µM",1.24 fold and 1.22 fold and 1.21 fold
same,"TRPM7 activation, fold","TRPM7-D670A; D670A, [Naltriben] 30 µM",1.55 fold and 1.37 fold (2×)
same,"TRPM7 activation, fold","TRPM7-D670A; D670A, [Naltriben] 40 µM",1.67 fold and 1.48 fold and 1.56 fold
same,"TRPM7 activation, fold","TRPM7-D670A; D670A, [Naltriben] 50 µM",2.45 fold and 1.56 fold and 1.72 fold
same,"TRPM7 activation, fold","TRPM7-D670A; D670A, [Naltriben] 100 µM",2.45 fold and 2.03 fold and 2.05 fold
same,"TRPM7 activation, fold","TRPM7-D670A; D670A, [Naltriben] 200 µM",3.19 fold and 2.69 fold and 2.68 fold
same,"TRPM7 activation, fold","TRPM7-D670A; D670A, [Naltriben] 300 µM",3.34 fold and 3.00 fold and 2.98 fold
same,"TRPM7 activation, fold","TRPM7-D670A; D670A, [Naltriben] 400 µM",3.55 fold and 3.27 fold and 3.16 fold
same,"TRPM7 activation, fold","TRPM7-D670A; D670A, [Naltriben] 500 µM",3.71 fold and 3.18 fold and 3.31 fold
same,Hill coefficient,"TRPM7-D670A; D670A, agonist, mean ± SEM",1.17 ± 0.24
same,EC50,TRPM7-L671A/N752K,230 ± 48.9 µM
same,Hill coefficient,"TRPM7-L671A/N752K; N752K/ L671A, agonist, mean ± SEM",2.82 ± 1.38
same,EC50,TRPM7-M741A,85 ± 6.51 µM
same,"TRPM7 activation, fold","TRPM7-M741A; M741A, [Naltriben] 10 µM",0.99 fold and 1.09 fold and 1.07 fold (2×)
same,"TRPM7 activation, fold","TRPM7-M741A; M741A, [Naltriben] 20 µM",1.10 fold and 1.30 fold and 1.28 fold and 1.20 fold
same,"TRPM7 activation, fold","TRPM7-M741A; M741A, [Naltriben] 30 µM",1.39 fold and 1.61 fold and 1.52 fold and 1.40 fold
same,"TRPM7 activation, fold","TRPM7-M741A; M741A, [Naltriben] 40 µM",1.53 fold and 1.69 fold and 1.74 fold and 1.64 fold
same,"TRPM7 activation, fold","TRPM7-M741A; M741A, [Naltriben] 50 µM",1.77 fold and 2.03 fold and 1.91 fold and 1.96 fold
same,"TRPM7 activation, fold","TRPM7-M741A; M741A, [Naltriben] 100 µM",2.28 fold and 2.65 fold and 2.56 fold and 2.47 fold
same,"TRPM7 activation, fold","TRPM7-M741A; M741A, [Naltriben] 200 µM",2.83 fold and 3.14 fold and 3.02 fold and 2.90 fold
same,"TRPM7 activation, fold","TRPM7-M741A; M741A, [Naltriben] 300 µM",3.11 fold and 3.30 fold and 3.34 fold and 3.20 fold
same,"TRPM7 activation, fold","TRPM7-M741A; M741A, [Naltriben] 400 µM",3.18 fold and 3.51 fold and 3.48 fold and 3.46 fold
same,"TRPM7 activation, fold","TRPM7-M741A; M741A, [Naltriben] 500 µM",3.39 fold and 3.58 fold (2×) and 3.45 fold
same,Hill coefficient,"TRPM7-M741A; M741A, agonist, mean ± SEM",1.37 ± 0.11
same,EC50,TRPM7-N752K,191 ± 18 µM
same,Hill coefficient,"TRPM7-N752K; N752K, agonist, mean ± SEM",1.91 ± 0.24
same,EC50,TRPM7-S744A,71.8 ± 9.7 µM
same,Hill coefficient,"TRPM7-S744A; S744A, agonist, mean ± SEM",1.48 ± 0.25
same,whole-cell currents in the presence of agonist,"wild-type TRPM7; 500 μM NTB, 170-s application",dramatically increased
